From patent publication EP0340778A2, “Prodrugs of 2',3'- Didehydro-2',3'-Dideoxynucleosides” (Bristol-Myers Squibb Company, priority 1988, dated 1989)

System: HIV (LAV strain)
Test: anti-HIV/LAV activity in cultures of CEM-F cells, p-24 gag protein enzyme capture assay (ELISA)
Type: cell-based
Settings: Human immunodeficiency virus 1, CCRF-CEM, 192 h, read-out: ID₅₀
Experimental: The anti-HIV/LAV activity of several compounds representative of this invention and of d4T for comparison was measured in cultures of CEM-F cells. The CEM cells were infected with approximately 30 TCID₅₀ (50% tissue culture infectious dose) of HIV (LAV strain). The cells were then incubated for 45 min 37°C. The test compounds, in culture medium, were added at various concentrations to the infected cells and then incubated for a further 8 days. After 8 days the antiviral activity was evaluated in the culture media supernatant for p-24 gag protein by an enzyme capture assay (ELISA). The antiviral activity was expressed as the dose which inhibits 50% of the virus expression (ID₅₀ in µM) as detected by the assay described.

SMILES | IC50 [nM]
CC(=O)OC[C@@H]1C=C[C@H](n2cc(C)c(=O)[nH]c2=O)O1 [Example 1, 5′-O-Acetyl-2′,3′-didehydro-2′,3′-dideoxythymidine] | 3200
COCC(=O)OCC1C=CC(n2cc(C)c(=O)[nH]c2=O)O1 (stereo not drawn) [Example 3, 5′-O-Methoxyacetyl-2′,3′-didehydro-2′,3′-dideoxythymidine] | 400
Cc1cn([C@H]2C=C[C@@H](COC(=O)C(C)(C)C)O2)c(=O)[nH]c1=O [Example 4, 5′-O-Pivaloyl-2′,3′-didehydro-2′,3′-dideoxythymidine] | 4800
COC(=O)OC[C@@H]1C=C[C@H](n2cc(C)c(=O)[nH]c2=O)O1 [Example 5, 5′-O-Methoxycarbonyl-2′,3′-didehydro-2′,3′-dideoxythymidine] | 3200
Cc1cn([C@H]2C=C[C@@H](COC(=O)OC3CCCCC3)O2)c(=O)[nH]c1=O [Example 6, 5′-O-Cyclohexyloxycarbonyl-2′,3′-didehydro-2′,3′-dideoxy-thymidine] | 600

Results, then the compound that gave them:

IC50 [nM] | SMILES
500 | Cc1cn(C2C=CC(COC(=O)c3ccccc3)O2)c(=O)[nH]c1=S (stereo not drawn) [Example 8, 5′-O-Benzoyl-2′,3′-dihydro-2′,3′-dideoxy-4-thio-thymidine]
200 | Cc1cn([C@H]2C=C[C@@H](CO)O2)c(=O)[nH]c1=O [d4T, 2′,3′-didehydro-2′,3′-dideoxythymidine, reference compound]

Same assay, conditions: Human immunodeficiency virus 1, CCRF-CEM, 192 h; dose which inhibits 50% of the virus expression; CEM cells infected with approximately 30 TCID₅₀ of HIV (LAV strain); 8 days incubation with compound; p-24 gag protein in culture media supernatant; read-out: ID₅₀

IC50 [nM] | SMILES
500 | O=C(OC[C@@H]1C=C[C@H](n2ccc(=S)[nH]c2=O)O1)c1ccccc1 [Example 11, 5′-O-Benzoyl-2′,3′-didehydro-2′,3′-dideoxy-4-thio-uridine]
100 | Nc1ccn([C@H]2C=C[C@@H](COC(=O)c3ccccc3)O2)c(=O)n1 [Example 12, 5′-O-Benzoyl-2′,3′-didehydro-2′,3′dideoxycytidine]
